Measured values published in patent US10526646B2, “Chromogenic peroxidase substrates” (Dako Denmark A/S, priority 2015, dated 2020).
Converted amounts (≈) assume the structure as drawn.

Assays:
[1] = target: T1, HRP (Armoracia rusticana, UniProt P00433); assay: IHC staining of FFPE human tissues and Her2 control cell lines, Envision+ Dual link HRP visualization, DAB as reference; design: species or system horse radish; conditions: for staining in the high expression range: very high expression targets, trained observers; for colour of IHC stain / stain intensity and crispness compared with DAB: tested in 0.4 to 1 mM; for stain intensity and crispness compared with DAB: low and medium expression targets
T1 construct: purchased Dako K4061
T1 sequence (P00433 31-338): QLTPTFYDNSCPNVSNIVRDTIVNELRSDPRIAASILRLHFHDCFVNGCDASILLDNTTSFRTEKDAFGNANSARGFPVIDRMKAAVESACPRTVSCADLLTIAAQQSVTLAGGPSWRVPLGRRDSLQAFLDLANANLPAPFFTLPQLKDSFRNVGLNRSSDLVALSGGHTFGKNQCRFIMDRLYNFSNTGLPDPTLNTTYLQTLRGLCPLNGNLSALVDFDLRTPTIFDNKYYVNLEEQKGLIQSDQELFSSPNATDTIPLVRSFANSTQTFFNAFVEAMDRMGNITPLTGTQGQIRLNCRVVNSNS

[2] = target: T1, HRP; assay: Triple immunohistochemical staining (Ki67, CD20, Her2) on Dako Autostainer; design: species or system horse radish; conditions: 0.5 mM conjugate, 50 mM imidazole:HCl pH 6.8, 0.003% hydrogen peroxide, 2.5% NMP, 5 min
Description: The exemplary triple staining method employed DAB in combination with Compounds 2 and 8, on a Dako Autostainer at room temperature. The steps of the method included: • 1. Blocking of endogenous peroxidase with peroxidase block (Dako S2023), 5 min. • 2. antiKi67 RTU antibody (Dako IR626), 20 mm • 3. Envision+dual Link HRP (Dako K4061), 20 min • 4. DAB (Dako K3468) 5 min. • 5. HRP quenching with peroxidase block (Dako S2023) with addition of 5 mg/mL alphacyano cinnamic acid, 5 min. • 6. antiCD20cy RTU antibody (Dako IR604), 20 min • 7. Envision+dual Link HRP (Dako K4061), 20 min • 8. 0.5 mM compound 2 in 50 mM imidazole: HCl pH 6.8, 0.003% hydrogen peroxide and 2.5% NMP, 5 min. • 9. HRP quenching with peroxidase block (Dako S2023) with addition of 5 mg/mL alphacyano cinnamic acid, 5 min. • 10. antiHer2 (Dako vial ST301 from HercepTest kit SK001) 20 min. • 11. Envision+dual Link HRP (Dako K4061), 20 min • 12. 0.5 mM compound 8 in 50 mM imidazole: HCl pH 6.8, 0.003% hydrogen peroxide and 2.5% NMP, 5 min. • 13. Counter stain with haematoxylin (Dako S3301)

[3] = target: T1, HRP; assay: Tissue staining with mixtures of chromogens in chromogen buffer; design: species or system horse radish
[4] = Mutagenicity test
[5] = Solubility in substrate buffer as function of percentage of NMP; format: physicochemical
Description: Only Compound 6 having a piperazine amide stands out by absorbing at 536 nm, around 5 nm above the esters comprising Compounds 2, 13, 14 and 15 all with abs max within 531-533 nm. […] Addition of NMP to the buffer in all cases increased chromogen solubility. See result table below of the solubility of 2, 13 and 15 as function of percentage of NMP as organic co solvent, 0% representing neat aqueous buffer 50 mM imidazole: HCl, pH 6.8, 3% and 10% said percent.

[6] = target: T1, HRP; assay: Fast CISH on human tissue slides, antiFITC-HRP; design: species or system horse radish; conditions: 1 mM in substrate buffer pH 6.8, 0.003% hydrogen peroxide, 5 min
[7] = UV-VIS absorbance maxima of chromogenic conjugates and mixtures; format: physicochemical
Description: “Spectrally narrow” refers to a chromogen having less that 50 nm broadness at its maximum absorbance at half peak height by UV-VIS spectroscopy, measured in +99% water at pH, 6-8 in 10 μM concentration. A “magenta chromogen” is a spectrally narrow chromogen with peak absorbance between 525 and 530 nm, measured in +99% water at pH, 6.0-8.0 in 10 μM concentration. A “greenish-yellow chromogen” is a chromogen with peak absorbance below 475 nm and less than 10% absorbance at 530 nm or above relative to the peak absorbance, measured in +99% water at pH, 6.0-8.0 in 10 μM concentration. A “yellow chromogen” is a chromogen with peak absorbance below 505 nm and less than 10% absorbance at 530 nm or above relative to the peak absorbance, measured in +99% water at pH, 6.0-8.0 in 10 μM concentration. A “cyan chromogen” is a chromogen having maximal absorbance above 615 nm and less than 10% relative absorbance at any wavelength between 530 and 400 nm relative to the peak absorbance, measured in +99% water at pH, 6.0-8.0 m 10 μM concentration. An “orange chromogen” is a “spectrally narrow” chromogen that has maximum absorbance between 495 and 520 nm, measured in +99% water at pH, 6-8 in 10 μM concentration. A “dichroic chromogen” is a chromogen that has at least two absorbance maxima, separated by a local minimum at least 50 nm wide and one further global minimum between 390 and 700 nm measured in water between pH 6 and 8.

SMILES | staining in the high expression range [1] | stain produced in triple staining [2] | IHC staining performance of Rhodamine 6G derivatives with different 4-hydroxy cinnamic acid derivatives ([1]; peroxidase substrate moiety varied) | colour of IHC stain [1] | stain intensity and crispness compared with DAB [1] | intensity compared with DAB ([3]; 0.6 mM in 15 mM imidazole pH 6.8, 4% NMP, 0.1% NP40-Nonidet, 0.01% Benzalkonium chloride, 0.03% hydrogen peroxide) | colour of stain of compound alone ([3]; alone) | mutagenicity [4] | solubility ([5]; imidazole:HCl buffer (substrate buffer) with 3% NMP, aqueous buffer, 3% NMP in 50 mM imidazole:HCl pH 6.8) [µM] | solubility ([5]; imidazole:HCl buffer (substrate buffer) with 10% NMP, aqueous with cosolvent or surfactant or cyclodextrin, 10% NMP in 50 mM imidazole:HCl pH 6.8) [µM] | solubility ([5]; imidazole:HCl buffer (substrate buffer), 0% NMP, neat aqueous buffer 50 mM imidazole:HCl pH 6.8) [µM] | CISH signals [6] | Absp nm (max) [7] [nm]
Nc1ccc(-c2ccc(N)c(N)c2)cc1N [DAB, 3,3′-diaminobenzidine, reference compound] | tended to over-stain and blackout morphological details | brown ki67 nuclear stain |  |  |  |  |  |  |  |  |  |  | 
CC/N=c1\cc2oc3cc(NCC)c(C)cc3c(-c3ccccc3C(=O)OCC(=O)NCCOCCOCCNC(=O)/C=C/c3ccc(O)cc3)c-2cc1C [Compound 2, Rhodamine 6G-L12-Cou] | performed better and more dynamically in the high expression range | red Her2 membrane stain | both strong and crisp stains with no background | red stains | fully matched DAB in intensity and crispness | matching DAB in intensity in the low range | changed from bright magenta at low intensities toward more full reds at higher intensities | does not have significant mutagenicity | 1200 (≈ 899 µg/mL) | 3600 (≈ 2700 µg/mL) | 1000 (≈ 749 µg/mL) | large and distinct dots in both Tonsil tissues | 531
CCN(CC)c1ccc2c(-c3ccccc3C(=O)N3CCN(CC(=O)NCCOCCOCCNC(=O)/C=C/c4ccc(O)cc4)CC3)c3ccc(=[N+](CC)CC)cc-3oc2c1 [Compound 8, RhodamineB-Pip-L12-Cou] |  | purple CD20 membrane stain |  | slightly bluish purple stains | more than matched DAB in intensity and crispness |  |  |  |  |  |  |  | 567
